Assay results taken from patent publication US20220064238A1, “Methods And Compositions For Modifying Transcription Factor Activity by Targeting The Human Mediator Complex Using Cell Penetrating Memetic Peptides And Methods of Treating Cancer Using The Same” (The Regents of the University of Colorado, a body corporate, priority 2020, published 2022).
Bridge positions count the residues as written; N and C are the ends. Square brackets hold non-standard residues; d marks the D form. Peptide text beside a SMILES is read from it. PEG6 = NCCOCCOCCOCCOCCOCCOCCC(=O)O; R8 = C=CCCCCCC[C@@](C)(N)C(=O)O; S5 = C=CCCC[C@](C)(N)C(=O)O

Tests used:
[1] = tested on: SJSA cells; experiment: SJSA cell death after Nutlin treatment (CellTiter-Glo); format: cell-based; conditions: 24-hour Nutlin 10 μM
Experimental: (§1) Experimental time frame for RNA-Seq experiments: In a series of experiments in SJSA cells, we initially tested whether the bivalent peptide could cause a phenotypic change. […] We next determined that a 6-hour Nutlin treatment time was the shortest that would still trigger significant SJSA cell death within 24-48 hours. However, we obtained similar results with 6-hour (or 12-hour) Nutlin treatment times (±bivalent peptide). We then tested the prospect of RNA-Seq experiments, in hopes that gene expression changes and shorter time frames would allow an assessment of bivalent peptide effects. Here, we used HCT116 cells, which show strong transcriptional response to Nutlin (Allen et al., 2014). For RNA-Seq experiments, we needed a time frame long enough to allow accumulation of p53 target gene mRNAs but short enough to enable maximum activity of the bivalent peptide (e.g. prior to its secretion, export, and/or degradation). Using RT-qPCR assays, we confirmed that a 3-hour Nutlin treatment was a minimum amount of time to reliably detect induction of p53 target genes. […] RNA-Seq data have been uploaded on GEO: GSE135870.

[2] = tested on: p53-target genes in HCT116 cells; experiment: RT-qPCR of p53 target genes in HCT116 cells; format: cell-based, human; conditions: HCT116, 3-hour Nutlin treatment
Experimental: as §1

[3] = tested on: p53 target genes in HCT116 cells; experiment: RNA-Seq / GSEA in HCT116 cells, p53 pathway genes; format: cell-based, human
Experimental: To circumvent this issue, we used a well-tested electroporation protocol to enhance cell uptake of the bivalent peptide (see Methods). HCT116 cells were evaluated either in the presence of bivalent peptide or vehicle (water), with or without Nutlin-3a (FIG. 3A, B). Nutlin-3a is a small molecule that activates and stabilizes p53 by inhibiting MDM2, a repressor of p53. […] After 3 h Nutlin-3a treatment (or DMSO control, ±bivalent peptide), nuclear RNA was isolated and biological replicate RNA-Seq libraries were prepared (FIG. 9A; Table 1).
A confounding issue with these experiments was that cellular uptake of the bivalent peptide could not be accurately measured and could potentially vary from experiment-to-experiment. To assess this possibility more thoroughly, we completed an additional round of RNA-Seq experiments in control vs. Nutlin-treated HCT116 cells (FIG. 9B; Table 1). These additional experiments (RNA-Seq experiment 2) were completed with a slightly modified protocol that included treatment in serum-free media as an effort to enhance peptide uptake. Importantly, the data from RNA-Seq experiment 2 (biological triplicate; FIG. 10) were consistent with the first series of biological replicates (RNA-Seq experiment 1; FIG. 3C-E) and in each case, repression of p53-dependent transcription by the bivalent peptide tracked with Nutlin induction levels (FIG. 9CE). Nutlin-induced activation of p53 target genes was inhibited in the presence of the bivalent peptide, providing further evidence that the bivalent peptide blocks p53 response in cells. However, the scope and magnitude of the effect was reduced in this second, independent set of RNA-Seq experiments (e.g. compare FIG. 3C, D & FIG. 10C, D). This broadly consistent but variable magnitude effect can also be seen from RNA-Seq reads at specific p53 target genes (RNA-Seq experiment 1, FIG. 4A, B; RNA-Seq experiment 2, FIG. 4C, D). The overall p53 response to Nutlin-3a was reduced in RNA Seq experiment 2 (GSEA p53 pathway NES=2.76 in RNA-Seq experiment 1 vs. NES=1.59 in RNASeq experiment 2), which therefore reduced the transcriptional impact of the bivalent peptide. However, we cannot rule out variable cellular uptake of the bivalent peptide as a contributing factor.
Electroporation of bivalent peptide into HCT116 cells (RNA-Seq experiment 1): Two 6-well plates (HCT116 cells) were grown to about 80% confluency. Cells were then trypsinized, washed with PBS, and resuspended in 150 μL Neon Buffer R. The cells were then split into two groups: No peptide and 10 μM peptide. The cells were then drawn into a 10 μL Neon pipet tip, electroporated and ejected into 2 mL of McCoy's 5A media without antibiotic. For each experiment, two cell electroporation aliquots were added to media containing either 0.1% DMSO (control) or 10 μM Nutlin-3a (in DMSO, to a final concentration of 0.1%). For wells containing cells electroporated with peptide, an additional 200 nM peptide was added to the well to allow for peptide uptake during the experiment. The 6-well plate was then placed back at 37° C. for 3 hours. After 3 hours, cells were scraped from the plates, transferred to a 15 mL conical vial, pelleted at 1,000×g, and washed in 10 mL phosphate buffered saline (PBS) solution. To isolate the nuclei, cells were resuspended in 10 mL lysis buffer (10 mM Tris-HCl, pH 7.4, 2 mM MgCl2, 3 mM CaCl2), 0.5% NP-40, 10% glycerol) and thoroughly mixed. The nuclei were spun down at 1,000×g for 10 minutes, the lysis buffer was removed, and 1 mL of TRIzol was added. The nuclear RNA was isolated as described in the TRIzol instructions, except an additional phenol/chloroform extraction and chloroform-only extraction were performed to reduce contaminants. RNA was precipitated and washed twice with 75% ethanol to further remove contaminants. The RNA was then converted to cDNA using the High Capacity cDNA kit from Thermo Fisher Scientific. […]

With CC[C@H](C)[C@H](NC(=O)[C@H](CC(=O)O)NC(=O)[C@H](CC(=O)O)NC(=O)[C@@H]1CCCN1C(=O)[C@H](CO)NC(=O)[C@H](CC(C)C)NC(=O)CCOCCOCCOCCOCCOCCOCCNC(=O)[C@H](CCCNC(=N)N)NC(=O)[C@H](CCCNC(=N)N)NC(=O)[C@]1(C)CCCC=CCCCCCC[C@@](C)(NC(=O)[C@H](Cc2ccccc2)NC(=O)[C@H](CCCNC(=N)N)NC(=O)[C@H](CCC(=O)O)NC(=O)[C@H](CCC(N)=O)NC(=O)[C@H](CO)NC(=O)[C@H](CCCNC(=N)N)NC(C)=O)C(=O)N[C@@H](CC(=O)O)C(=O)N[C@@H](CC(C)C)C(=O)N[C@@H](Cc2c[nH]c3ccccc23)C(=O)N[C@@H](CCCCN)C(=O)N[C@@H](CCCNC(=N)N)C(=O)N[C@@H](CC(C)C)C(=O)N1)C(=O)N[C@@H](CCC(=O)O)C(=O)N[C@@H](CCC(N)=O)C(=O)N[C@@H](Cc1c[nH]c2ccccc12)C(=O)N[C@@H](Cc1ccccc1)C(=O)N[C@H](C(=O)N[C@@H](CCC(=O)O)C(=O)N[C@@H](CC(=O)O)C(N)=O)[C@@H](C)O [bivalent peptide] (Ac-RSQERF[R8]DLWKRL[S5]RR[PEG6]LSPDDIEQWFTED-NH2; staple 7-14; N-terminus assumed) as the compound, how does the “effect on cell death after Nutlin treatment” value [1] read?
Its value is “no significant effect”.

What about the “activation of p53-target genes by RT-qPCR” value [2] of the same compound?
Its value is “blocking activation of p53-target genes”.

What about the “GSEA p53 pathway NES, Nutlin response in peptide-treated cells” value ([3]; RNA-Seq experiment 1, +Nutlin) of the same compound?
The value was 1.97.

What about the “GSEA p53 pathway NES, Nutlin response in peptide-treated cells” value ([3]; RNA-Seq experiment 2, +Nutlin) of the same compound?
The value was 0.92.

And the “Nutlin-induced activation of p53 target genes in peptide-treated cells” value ([3]; electroporated 10 μM peptide, Nutlin-3a 10 μM, 3 h, HCT116)?
The value was “diminished”.

What about the “p53 activation by peptide alone” value ([3]; no Nutlin, vs. untreated controls, HCT116) of the same compound?
The value was “modest p53 activation”.
